Assay results: publication PMC6120877, “Intriguing role of water in protein-ligand binding studied by neutron crystallography on trypsin complexes” (Nature Communications, 2018)

Key:
bovine trypsin = molecular target: T1, bovine trypsin (Bos taurus, UniProt P00760); assay: Kinetic fluorescence enzyme inhibition assay, trypsin; format: biochemical; conditions: for Ki: fluorescence assay, D-Phe-Pro derivatives
T1 construct: purchased Worthington Biochemical Corporation LS003707
T1 sequence (P00760 24-246): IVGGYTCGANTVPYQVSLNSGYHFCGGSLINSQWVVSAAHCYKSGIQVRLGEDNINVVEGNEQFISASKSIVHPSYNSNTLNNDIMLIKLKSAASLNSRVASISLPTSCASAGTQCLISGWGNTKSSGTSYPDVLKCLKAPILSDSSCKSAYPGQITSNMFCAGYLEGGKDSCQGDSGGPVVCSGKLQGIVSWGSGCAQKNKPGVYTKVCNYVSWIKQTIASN
Experimental: Following the same approach as used in an earlier study, kinetic data were obtained in black 96-well plates using a Fluoroskan Ascent fluorometer (Thermo Fisher Scientific, Vantaa/Finland; λex = 355 nm, λem = 460 nm). The assay was performed at room temperature in a buffer composed of 43 mM Tris pH 7.8, 132 mM NaCl and 0.0086 % (w/v) PEG 8000. The final trypsin concentration was 65 pM. […] The D-Phe-Pro analogs were dissolved in DMSO and further diluted in buffer to yield a final DMSO concentration in the assay well below 1% (v/v). Mes-d-Arg-Gly-Arg-AMC (Mes = mesyl; AMC = […]) available from a previous study was used as the substrate. […] The uninhibited trypsin-catalyzed reaction was investigated in parallel at the three substrate concentrations 6.3, 12.5, and 25 µM. […] For this purpose, a non-linear fit to the Michaelis-Menten equation modified for reversible competitive inhibitors was used.

bovine β-trypsin [1] = molecular target: T2, bovine β-trypsin (Bos taurus, UniProt P00760); assay: Direct ITC titration, trypsin; format: binding; conditions: for number of protons transferred from the buffer onto trypsin upon complex formation (slope of interpolation function): ∆H° vs. buffer ionization enthalpy, three buffers
T2 construct: dialyzing a solution of bovine β-trypsin (Sigma Aldrich, product number T8003); purchased Sigma Aldrich T8003
T2 sequence (P00760 24-246): T1 sequence (P00760 24-246)
Experimental: To determine dissociation constants for trypsin:inhibitor complexes, two different isothermal titration calorimetry (ITC) titration protocols were used. […] Protein samples were prepared by dialyzing a solution of bovine β-trypsin (Sigma Aldrich, product number T8003) against a buffer composed of 80 mM NaCl, 10 mM CaCl2, 0.1 % (w/v) PEG 8000 and 100 mM HEPES, Tricine or Tris at a pH of 7.6 and a temperature of 4 °C while ligands were dissolved in buffer. […] Titrations were performed in three different buffer systems to enable the correction for any proton transfer occurring between buffer and protein upon complex formation. For this purpose, the obtained ∆H° values were plotted against the ionization enthalpy of the used buffer yielding a buffer-corrected enthalpy as the intercept (for more details see footnote b in Supplementary Tables 2 and 3). […] Applying the same protocol and data analysis scheme as used in an earlier study, ITC titrations were performed on an ITC200 device (GE Healthcare) at 25 °C with a reference power of 5 µcal s^−1. The ITC protocol consisted of an initial 0.3 µl volume injection and of 20–25 injections with a volume between 1.5 and 1.8 µl separated by a 220 s time interval. For data analysis, the method described by Turnbull et al. was applied.

bovine β-trypsin [2] = molecular target: T2, bovine β-trypsin; assay: Displacement ITC titration, trypsin (displacement ligand compound 2); format: binding; conditions: HEPES
Experimental: Sample preparations, measurements and data analyses were performed using the same approach as for our earlier study, which is described in the following. […] ITC data were collected using an ITC200 device (GE Healthcare) at 25 °C with a reference power of 5 µcal s^−1. An initial 0.3 µl volume injection was followed by 19 injections with a volume of 1.9 µl.

human thrombin = molecular target: T3, human thrombin (Homo sapiens, UniProt P00734); assay: Kinetic fluorescence enzyme inhibition assay, thrombin; format: biochemical; conditions: D-Phe-Pro derivatives
T3 construct: The analogous assay was applied to human thrombin, which was kindly provided by CSL Behring; purchased CSL Behring

[3] = buffer-corrected (average over three buffers), 3% (v/v) DMSO
[4] = buffer-corrected (difference between ∆G° and ∆H°), 3% (v/v) DMSO
[5] = buffer-corrected (intercept at ionization enthalpy 0), 3% (v/v) DMSO
[6] = direct titration, HEPES, 3% (v/v) DMSO
[7] = direct titration, Tricine, 3% (v/v) DMSO
[8] = direct titration, Tris, 3% (v/v) DMSO

Structure (SMILES)	Ki (bovine trypsin) [nM]	Kd (bovine β-trypsin [1]; [3]) [nM]	∆G° (bovine β-trypsin [1]; [3]) [kcal/mol]	–T∆S° (bovine β-trypsin [1]; [4]) [kcal/mol]	∆H° (bovine β-trypsin [1]; [5]) [kcal/mol]	Kd (bovine β-trypsin [1]; [6]) [nM]	–T∆S° (bovine β-trypsin [1]; [6]) [kcal/mol]	∆G° (bovine β-trypsin [1]; [6]) [kcal/mol]	∆H° (bovine β-trypsin [1]; [6]) [kcal/mol]	Kd (bovine β-trypsin [1]; [7]) [nM]	–T∆S° (bovine β-trypsin [1]; [7]) [kcal/mol]	∆G° (bovine β-trypsin [1]; [7]) [kcal/mol]	∆H° (bovine β-trypsin [1]; [7]) [kcal/mol]	Kd (bovine β-trypsin [1]; [8]) [nM]	–T∆S° (bovine β-trypsin [1]; [8]) [kcal/mol]	∆G° (bovine β-trypsin [1]; [8]) [kcal/mol]	∆H° (bovine β-trypsin [1]; [8]) [kcal/mol]	number of protons transferred from the buffer onto trypsin upon complex formation (slope of interpolation function) (bovine β-trypsin [1]; 3% (v/v) DMSO)	also measured
N=C(N)c1ccccc1 [Benzamidine, benzamidine]	–	–	–	–	–	–	–	–	–	–	–	–	–	–	–	–	–	–	stronger inhibition of trypsin than N-amidinopiperidine (bovine trypsin; benzamidine vs. N-amidinopiperidine): about 10 fold; –T∆S° (bovine β-trypsin [1]; direct titration, HEPES): -3.59 ± 0.072 kcal/mol; ∆G° (bovine β-trypsin [1]; direct titration, HEPES): -6.38 ± 0.072 kcal/mol; ∆H° (bovine β-trypsin [1]; direct titration, HEPES): -2.8 ± 0.024 kcal/mol; –T∆S° (bovine β-trypsin [1]; direct titration, Tricine): -2.53 ± 0.14 kcal/mol; ∆G° (bovine β-trypsin [1]; direct titration, Tricine): -6.33 ± 0.0096 kcal/mol; ∆H° (bovine β-trypsin [1]; direct titration, Tricine): -3.8 ± 0.14 kcal/mol; –T∆S° (bovine β-trypsin [1]; direct titration, Tris): -1.58 ± 0.096 kcal/mol; ∆G° (bovine β-trypsin [1]; direct titration, Tris): -6.33 ± 0.0072 kcal/mol; ∆H° (bovine β-trypsin [1]; direct titration, Tris): -4.76 ± 0.096 kcal/mol; ∆G° (bovine β-trypsin [1]; direct titration, buffer-corrected (average over three buffers)): -6.36 kcal/mol; –T∆S° (bovine β-trypsin [1]; direct titration, buffer-corrected (difference between ∆G° and ∆H°)): -5.02 kcal/mol; ∆H° (bovine β-trypsin [1]; direct titration, buffer-corrected (intercept at ionization enthalpy 0)): -1.34 kcal/mol; number of protons transferred from the buffer onto trypsin upon complex formation (slope of interpolation function) (bovine β-trypsin [1]): -0.31; –T∆S° (bovine β-trypsin [2]): -2.44 ± 0.22 kcal/mol; ∆G° (bovine β-trypsin [2]): -6.31 ± 0.14 kcal/mol; ∆H° (bovine β-trypsin [2]): -3.85 ± 0.17 kcal/mol
N=C(N)N1CCC(CNC(=O)[C@@H]2CCCN2C(=O)[C@H](N)Cc2ccccc2)CC1.O=C(O)C(F)(F)F.O=C(O)C(F)(F)F [Compound 1]	1960 ± 264	3600	-7.43	-2.22	-5.21	3700 ± 200	-2.77 ± 0.072	-7.41 ± 0.048	-4.64 ± 0.072	3300 ± 300	-3.15 ± 0.12	-7.48 ± 0.048	-4.33 ± 0.12	3700 ± 600	-3.51 ± 0.17	-7.41 ± 0.096	-3.9 ± 0.14	0.12	Ki (human thrombin): 4.51 ± 0.25 nM
N=C(N)c1ccc(CNC(=O)[C@@H]2CCCN2C(=O)[C@H](N)Cc2ccccc2)cc1 [Compound 2]	15.2 ± 0.2	34	-10.2	-1.05	-9.13	38 ± 7	-1.65 ± 0.19	-10.1 ± 0.096	-8.48 ± 0.17	34 ± 3	-2.63 ± 0.096	-10.2 ± 0.048	-7.55 ± 0.096	31 ± 5	-2.87 ± 0.14	-10.2 ± 0.096	-7.39 ± 0.096	0.17	–
